Residue numbers refer to the chain shown, from its start.
Legend:
[1] = biological target: T1, KIF13B MD-NC-CC1 (Rattus norvegicus, UniProt A0A0G2K8Z9); assay: microtubule-stimulated ATPase, malachite green phosphate endpoint assay; type: biochemical; conditions: microtubules present; autoinhibited wild type
T1 construct: MD-NC-CC1 fragment (motor domain, neck coil, CC1)
T1 sequence (A0A0G2K8Z9 48-490 limits assumed): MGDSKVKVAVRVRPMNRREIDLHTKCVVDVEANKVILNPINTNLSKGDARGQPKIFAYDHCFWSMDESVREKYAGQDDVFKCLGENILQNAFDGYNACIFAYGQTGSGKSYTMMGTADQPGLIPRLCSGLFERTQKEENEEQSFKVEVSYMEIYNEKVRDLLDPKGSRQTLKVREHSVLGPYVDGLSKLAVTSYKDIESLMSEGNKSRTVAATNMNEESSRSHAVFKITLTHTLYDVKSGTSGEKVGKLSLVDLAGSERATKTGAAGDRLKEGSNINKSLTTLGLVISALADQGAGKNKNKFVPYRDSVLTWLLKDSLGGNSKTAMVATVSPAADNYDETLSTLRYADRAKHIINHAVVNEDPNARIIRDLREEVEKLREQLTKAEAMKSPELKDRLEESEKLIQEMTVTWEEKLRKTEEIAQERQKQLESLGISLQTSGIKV

[2] = biological target: T2, UNC-104 (MD-NC-CC1, residue 1-446) (Caenorhabditis elegans, UniProt P23678, C184Y); assay: microtubule-stimulated ATPase assay; type: biochemical; conditions: microtubules present
T2 construct: MD-NC-CC1 fragment, residues 1-446, bacterial expression
T2 sequence (P23678 1-446 C184Y): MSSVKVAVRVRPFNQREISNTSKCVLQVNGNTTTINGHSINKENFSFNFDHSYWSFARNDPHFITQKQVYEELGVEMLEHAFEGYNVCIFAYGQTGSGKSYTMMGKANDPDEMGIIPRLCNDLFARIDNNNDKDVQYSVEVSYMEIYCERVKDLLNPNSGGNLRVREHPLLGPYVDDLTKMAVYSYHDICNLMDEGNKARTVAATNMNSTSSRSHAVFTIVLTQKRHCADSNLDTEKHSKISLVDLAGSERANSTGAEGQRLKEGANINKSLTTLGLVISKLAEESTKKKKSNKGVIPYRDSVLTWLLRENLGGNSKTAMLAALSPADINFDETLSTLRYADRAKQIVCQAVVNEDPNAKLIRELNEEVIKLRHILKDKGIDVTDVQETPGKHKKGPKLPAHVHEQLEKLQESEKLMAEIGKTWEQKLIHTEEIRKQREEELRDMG

[3] = biological target: T3, KIF13B MD-NC-CC1 (Rattus norvegicus, UniProt A0A0G2K8Z9, , form not given); assay: microtubule-stimulated ATPase, malachite green phosphate endpoint assay; type: biochemical; conditions: microtubules present
T3 construct: MD-NC-CC1 fragment (motor domain, neck coil, CC1)
T3 sequence (A0A0G2K8Z9 48-490 T239Y limits assumed): T1 sequence (A0A0G2K8Z9 48-490 limits assumed) with T192Y

[4] = biological target: T4, UNC-104 (MD-NC-CC1, residue 1-446) (Caenorhabditis elegans, UniProt P23678); assay: microtubule-stimulated ATPase assay; type: biochemical; conditions: microtubules present
T4 construct: MD-NC-CC1 fragment, residues 1-446, bacterial expression
T4 sequence (P23678 1-446): T2 sequence (P23678 1-446 C184Y) with Y184C

[5] = biological target: KIF13B T192Y-MD-NC-CC1 mutant (rat); assay: crystal structure; crystals of the KIF13B T192Y-MD-NC-CC1 mutant (~25 mg/ml), 0.1 M Bis-Tris propane pH 8.2, 30% PEG 20000, sitting drop, 16°C; one molecule in the asymmetric unit, dimer formed by a crystallographic two-fold symmetry axis

Nc1ncnc2c1ncn2[C@@H]1O[C@H](COP(=O)(O)OP(=O)(O)OP(=O)(O)O)[C@@H](O)[C@H]1O [ATP]
microtubule-stimulated ATPase, malachite green phosphate endpoint assay [1]: Microtubule-stimulated ATPase activity of the KIF13B MD-NC-CC1 fragment | microtubule-stimulated ATPase assay [2]: the C184Y mutant undergo a significant enhancement in its ATPase activity | microtubule-stimulated ATPase, malachite green phosphate endpoint assay [3]: both the T192Y and L397F mutations significantly restored the ATPase activity of the MD-NC-CC1 fragment | microtubule-stimulated ATPase assay [4]: the MD-NC-CC1 fragment of UNC-104 shows the moderate MT-stimulated ATPase activity

KIF13B T192Y-MD-NC-CC1 mutant (domain or fragment)
stoichiometry N [5]: 2
